The values below come from US8921376B2, “Pyrrolopyridines useful as inhibitors of protein kinase” (Vertex Pharmaceuticals Incorporated, priority 2005, dated 2014).

SMILES strings stand for the structures.

Assay type in all cases: biochemical
In one experiment the target is T1, JAK3 (Homo sapiens, UniProt P52333).
T1 sequence (P52333 1-1124): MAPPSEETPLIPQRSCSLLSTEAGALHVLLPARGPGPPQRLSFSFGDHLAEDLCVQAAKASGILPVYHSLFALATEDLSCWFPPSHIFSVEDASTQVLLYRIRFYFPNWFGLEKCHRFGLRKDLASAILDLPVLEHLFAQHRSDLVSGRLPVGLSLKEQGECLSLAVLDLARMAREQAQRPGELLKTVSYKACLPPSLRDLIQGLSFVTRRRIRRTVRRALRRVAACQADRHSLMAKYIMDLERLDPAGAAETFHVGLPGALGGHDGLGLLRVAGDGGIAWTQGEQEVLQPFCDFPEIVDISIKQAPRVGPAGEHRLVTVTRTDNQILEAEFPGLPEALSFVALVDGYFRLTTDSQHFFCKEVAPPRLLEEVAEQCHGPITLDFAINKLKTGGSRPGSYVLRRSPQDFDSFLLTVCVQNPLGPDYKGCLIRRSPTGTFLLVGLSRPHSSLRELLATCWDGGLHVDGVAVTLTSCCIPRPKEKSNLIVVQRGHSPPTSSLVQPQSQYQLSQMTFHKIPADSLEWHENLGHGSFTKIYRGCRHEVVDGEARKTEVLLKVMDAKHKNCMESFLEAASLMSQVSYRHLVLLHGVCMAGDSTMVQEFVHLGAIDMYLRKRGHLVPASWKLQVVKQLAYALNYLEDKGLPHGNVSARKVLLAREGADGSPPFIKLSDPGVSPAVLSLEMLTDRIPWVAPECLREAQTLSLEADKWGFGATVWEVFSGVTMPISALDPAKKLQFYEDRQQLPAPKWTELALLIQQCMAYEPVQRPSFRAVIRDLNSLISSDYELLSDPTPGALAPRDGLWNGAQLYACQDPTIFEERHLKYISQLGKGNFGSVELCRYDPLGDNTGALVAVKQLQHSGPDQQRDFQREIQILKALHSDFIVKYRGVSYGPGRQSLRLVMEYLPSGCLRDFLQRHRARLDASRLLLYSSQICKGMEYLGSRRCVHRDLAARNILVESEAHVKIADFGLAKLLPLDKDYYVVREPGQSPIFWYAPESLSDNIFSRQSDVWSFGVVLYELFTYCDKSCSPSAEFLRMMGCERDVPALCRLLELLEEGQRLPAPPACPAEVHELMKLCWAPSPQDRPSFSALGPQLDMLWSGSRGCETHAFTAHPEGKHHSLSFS
Put plainly: JAK3 inhibition assay (33P incorporation into poly(Glu)4Tyr). The method in brief: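 After TCA quench and filter harvest, scintillation counting of 33P measured phosphorylation of poly(Glu)4Tyr (1 μM) by 1 nM JAK3. The 20-min, 25° C. reaction contained 5 μM ATP (200 μCi/μmole) in pH 7.4 HEPES buffer with 10 mM MgCl2.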

For another experiment, the target named is JAK2 (Homo sapiens, UniProt O60674). Put plainly: JAK2 inhibition assay (as Example 3 with JAK-2 enzyme). A digest of the protocol:
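In HEPES pH 7.4 buffer with 10 mM MgCl2, 1 mM DTT, 25 mM NaCl and 0.01% BSA, JAK2 enzyme phosphorylated poly(Glu)4Tyr (final 15 μM) using 33P-ATP (final 12 μM) for 20 min at room temperature (25 °C). Reactions stopped with TCA; incorporated 33P measured by scintillation after filtration.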

The next experiment has as its target ROCK I (Homo sapiens, UniProt Q13464). Put plainly: ROCK-I inhibition assay (radioactive enzyme assay, MBP substrate). A digest of the protocol: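 Human ROCK at 5 nM phosphorylated 27 μM myelin basic protein with 13 μM [γ-33P]ATP (final) in HEPES pH 7.5, MgCl2, NaCl, DTT and 1.5% DMSO. Reactions ran 2 h at room temperature before TCA quench and filter-plate scintillation counting. After background subtraction, data were fit to give Ki(app).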

Setting [1] is: Table 6, enzyme inhibition data (Ki).
Where [2] appears, read: enzyme inhibition, Ki(app), Table 5.

Chain of ROCK I (Q13464 whole entry): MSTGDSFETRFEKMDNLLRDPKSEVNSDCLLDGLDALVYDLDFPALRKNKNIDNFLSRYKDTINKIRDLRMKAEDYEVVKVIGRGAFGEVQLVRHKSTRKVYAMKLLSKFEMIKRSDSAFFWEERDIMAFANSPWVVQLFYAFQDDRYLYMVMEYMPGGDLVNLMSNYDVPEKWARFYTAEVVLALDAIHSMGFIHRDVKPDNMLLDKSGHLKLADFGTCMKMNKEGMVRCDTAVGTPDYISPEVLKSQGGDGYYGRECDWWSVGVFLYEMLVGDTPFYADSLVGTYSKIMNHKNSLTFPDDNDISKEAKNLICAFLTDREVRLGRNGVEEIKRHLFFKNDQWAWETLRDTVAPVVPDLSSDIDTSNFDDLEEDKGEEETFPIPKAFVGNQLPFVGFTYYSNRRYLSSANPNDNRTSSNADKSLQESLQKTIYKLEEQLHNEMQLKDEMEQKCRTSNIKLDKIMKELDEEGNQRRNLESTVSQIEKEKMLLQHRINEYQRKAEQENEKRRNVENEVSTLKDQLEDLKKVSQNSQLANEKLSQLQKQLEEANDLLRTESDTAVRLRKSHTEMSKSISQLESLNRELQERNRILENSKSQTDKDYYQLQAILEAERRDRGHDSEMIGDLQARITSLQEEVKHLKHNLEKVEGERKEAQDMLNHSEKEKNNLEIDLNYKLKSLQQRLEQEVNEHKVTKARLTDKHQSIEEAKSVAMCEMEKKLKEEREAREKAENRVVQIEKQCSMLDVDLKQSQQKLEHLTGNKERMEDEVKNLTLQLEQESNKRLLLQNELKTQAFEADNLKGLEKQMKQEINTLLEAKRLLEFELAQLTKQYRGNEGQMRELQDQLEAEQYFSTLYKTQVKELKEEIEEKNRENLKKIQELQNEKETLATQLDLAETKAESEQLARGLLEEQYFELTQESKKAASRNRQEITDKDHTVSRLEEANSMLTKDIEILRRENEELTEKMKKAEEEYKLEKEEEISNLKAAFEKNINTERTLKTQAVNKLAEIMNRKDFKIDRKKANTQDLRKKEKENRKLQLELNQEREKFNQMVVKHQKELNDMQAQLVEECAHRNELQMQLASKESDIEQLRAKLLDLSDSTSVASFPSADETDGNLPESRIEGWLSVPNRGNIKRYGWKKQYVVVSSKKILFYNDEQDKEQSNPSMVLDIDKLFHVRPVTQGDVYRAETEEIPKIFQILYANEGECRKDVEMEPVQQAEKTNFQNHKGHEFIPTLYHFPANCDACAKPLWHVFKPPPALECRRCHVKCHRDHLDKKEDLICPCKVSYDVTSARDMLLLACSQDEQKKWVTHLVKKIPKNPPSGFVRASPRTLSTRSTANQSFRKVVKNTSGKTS
Chain of JAK2 (O60674 whole entry): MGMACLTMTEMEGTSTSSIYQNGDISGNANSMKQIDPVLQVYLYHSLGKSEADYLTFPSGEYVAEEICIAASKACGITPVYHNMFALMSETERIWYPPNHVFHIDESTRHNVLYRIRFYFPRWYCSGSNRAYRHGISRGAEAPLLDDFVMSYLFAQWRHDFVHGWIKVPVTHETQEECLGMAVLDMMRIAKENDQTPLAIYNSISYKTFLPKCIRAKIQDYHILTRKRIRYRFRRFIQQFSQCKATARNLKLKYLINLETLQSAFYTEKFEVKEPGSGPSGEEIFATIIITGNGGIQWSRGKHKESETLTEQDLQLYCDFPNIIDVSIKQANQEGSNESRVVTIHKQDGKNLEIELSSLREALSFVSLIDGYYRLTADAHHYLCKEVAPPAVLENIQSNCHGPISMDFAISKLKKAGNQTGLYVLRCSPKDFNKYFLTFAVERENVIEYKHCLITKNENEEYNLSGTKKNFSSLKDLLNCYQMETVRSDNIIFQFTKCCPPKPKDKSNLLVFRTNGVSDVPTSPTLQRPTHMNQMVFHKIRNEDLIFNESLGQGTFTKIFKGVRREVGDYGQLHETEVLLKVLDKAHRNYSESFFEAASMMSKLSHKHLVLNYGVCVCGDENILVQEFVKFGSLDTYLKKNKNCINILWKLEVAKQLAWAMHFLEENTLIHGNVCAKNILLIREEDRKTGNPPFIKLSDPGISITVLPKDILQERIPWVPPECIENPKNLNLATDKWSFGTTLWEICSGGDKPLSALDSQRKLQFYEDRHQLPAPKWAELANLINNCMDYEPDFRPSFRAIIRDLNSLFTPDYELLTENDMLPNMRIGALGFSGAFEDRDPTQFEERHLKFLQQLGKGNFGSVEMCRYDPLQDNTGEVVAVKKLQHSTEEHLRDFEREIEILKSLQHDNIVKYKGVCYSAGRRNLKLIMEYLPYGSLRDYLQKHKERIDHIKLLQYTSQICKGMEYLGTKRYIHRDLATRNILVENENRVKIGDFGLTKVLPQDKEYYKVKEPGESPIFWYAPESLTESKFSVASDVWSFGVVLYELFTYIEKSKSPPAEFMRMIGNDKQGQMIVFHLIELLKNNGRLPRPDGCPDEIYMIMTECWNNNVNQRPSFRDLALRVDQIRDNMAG

Turning to `CCOc1cccc(-c2ccnc3[nH]ccc23)c1` [compound 249], the Ki at JAK3 (setting [1]), at JAK2 (setting [1]) and on ROCK I (setting [1]) was less than 500 nM each time.

As to `CCOC(=O)[C@@H]1[C@@H](C)CCN1C(=O)c1csc(-c2ccnc3[nH]ccc23)n1` [compound 422], the Ki on JAK3 (setting [1]), at JAK2 (setting [1]) and on ROCK I (setting [1]) was 500 to 5000 nM each time.

Consider `N#CC1(c2cccc(-c3ccnc4[nH]ccc34)n2)CCCC1` [compound 102, 1-(6-(1H-pyrrolo[2,3-b]pyridin-4-yl)pyridin-2-yl)cyclopentanecarbonitrile], for which the Ki at JAK3 (enzyme inhibition, Table 5) was less than 500 nM; on JAK2 (enzyme inhibition, Table 5), less than 500 nM; at ROCK I (setting [2]) it was less than 500 nM.

As to `COc1cccc(CNc2cccc(-c3ccnc4[nH]ccc34)n2)c1` [compound 73, N-(3-Methoxybenzyl)-6-(1H-pyrrolo[2,3-b]pyridin-4-yl)pyridin-2-anine], the Ki on JAK3 (enzyme inhibition, Table 5) was in the range of 500 to 5000 nM; at JAK2 (enzyme inhibition, Table 5), 500 to 5000 nM; on ROCK I (setting [2]), 500 to 5000 nM.

In the case of `Clc1cnc2[nH]ccc2c1-c1ccsc1` [compound 82, 5-Chloro-4-(thiophen-3-yl)-1H-pyrrolo[2,3b]pyridine], the Ki on JAK3 (enzyme inhibition, Table 5) is less than 500 nM; on JAK2 (enzyme inhibition, Table 5), less than 500 nM; on ROCK I (setting [2]) it was 500 to 5000 nM.

With `CC1CCCC(Nc2c(Cl)cnc3[nH]ccc23)C1` (stereo not drawn) [compound 161], the Ki at JAK3 (setting [1]), on JAK2 (setting [1]) and at ROCK I (setting [1]) was less than 500 nM in each case.

`O=C(Cc1ccccc1)Nc1cccc(-c2ccnc3[nH]ccc23)n1` [compound 99, N-(6-(1H-pyrrolo[2,3-b]pyridine-4-yl)pyridin-2-yl)phenylacetamide]: the Ki on JAK3 (enzyme inhibition, Table 5) is more than 5000 nM; on JAK2 (enzyme inhibition, Table 5), less than 500 nM; on ROCK I (setting [2]), 500 to 5000 nM.

As for `CCC(CC)NC(=O)c1cc(-c2ccnc3[nH]ccc23)c[nH]1` [compound 284], the Ki on JAK3 (setting [1]), on JAK2 (setting [1]) and at ROCK I (setting [1]) was less than 500 nM throughout.

On to `C[C@@H](Nc1nc(-c2ccnc3[nH]ccc23)nc2ccccc12)C(=O)NCC(F)(F)F` [compound 200], for which the Ki at JAK3 (setting [1]) was 500 to 5000 nM; on JAK2 (setting [1]) it was 500 to 5000 nM; on ROCK I (setting [1]) it was more than 4000 nM.

As to `O=C(CC(F)(F)F)N1CC=C(c2ccnc3[nH]ccc23)CC1` [compound 65], the Ki on JAK3 (enzyme inhibition, Table 5) is 500 to 5000 nM; on JAK2 (enzyme inhibition, Table 5) it was less than 500 nM; at ROCK I (setting [2]), less than 500 nM.

As for `Clc1cnc2[nH]ccc2c1NC1CCCCCC1` [compound 149], the Ki on JAK3 (setting [1]), on JAK2 (setting [1]) and on ROCK I (setting [1]) was less than 500 nM each time.

Take `C=CCN(CC=C)C(=O)c1cc(-c2ccnc3[nH]ccc23)c[nH]1` [compound 298]: the Ki on JAK3 (setting [1]), at JAK2 (setting [1]) and at ROCK I (setting [1]) was less than 500 nM throughout.

Regarding `N#CCC(=O)N1CC[C@H](Nc2c(Cl)cnc3[nH]ccc23)C1` [compound 191], the Ki is less than 500 nM at JAK3 (setting [1]), less than 500 nM on JAK2 (setting [1]) and more than 4000 nM on ROCK I (setting [1]).

On to `c1cc(NCC2CCCO2)nc(-c2ccnc3[nH]ccc23)c1` (stereo not drawn) [compound 36, N-((tetrahydrofuran-2-yl)methyl)-6-(1H-pyrrolo[2,3-b]pyridin-4-yl)pyridin-2-amine], for which the Ki at JAK3 (enzyme inhibition, Table 5) fell in the range of 500 to 5000 nM; at JAK2 (enzyme inhibition, Table 5) it was 500 to 5000 nM; on ROCK I (setting [2]), 500 to 5000 nM.

Take `COCCN(CCOC)C(=O)c1ccc(-c2ccnc3[nH]ccc23)s1` [compound 324]: the Ki on JAK3 (setting [1]), at JAK2 (setting [1]) and at ROCK I (setting [1]) was less than 500 nM throughout.

On to `Cc1n[nH]c(C)c1-c1ccnc2[nH]ccc12` [compound 124, 4-(3,5-Dimethyl-1H-pyrazol-4-yl)-1H-pyrrolo[2,3-b]pyridine], for which the Ki at JAK3 (enzyme inhibition, Table 5) was 500 to 5000 nM; at JAK2 (enzyme inhibition, Table 5), more than 5000 nM; on ROCK I (setting [2]), 500 to 5000 nM.

For `O=C(NCCC(F)(F)F)c1ccccc1-c1ccnc2[nH]ccc12` [compound 254], the figures for the Ki at JAK3 (setting [1]), on JAK2 (setting [1]) and on ROCK I (setting [1]) were more than 5000 nM, more than 5000 nM and more than 4000 nM, respectively.

Consider `CC(C)(C)OC(=O)n1c(-c2c(Cl)cnc3[nH]ccc23)cc2ccccc21` [compound 147], for which the Ki on JAK3 (setting [1]) is more than 5000 nM; at JAK2 (setting [1]), more than 5000 nM; on ROCK I (setting [1]), more than 4000 nM.

With `Clc1cnc2[nH]ccc2c1-c1ccco1` [compound 136], the Ki at JAK3 (setting [1]), on JAK2 (setting [1]) and at ROCK I (setting [1]) was less than 500 nM throughout.

Regarding `CCCNC(=O)c1ccccc1-c1ccnc2[nH]ccc12` [compound 258], the values for the Ki on JAK3 (setting [1]), on JAK2 (setting [1]) and on ROCK I (setting [1]) were more than 5000 nM, more than 5000 nM and more than 4000 nM, respectively.

As to `CCCN(CCC#N)C(=O)c1ccc(-c2ccnc3[nH]ccc23)s1` [compound 320], the Ki on JAK3 (setting [1]), on JAK2 (setting [1]) and on ROCK I (setting [1]) was less than 500 nM throughout.

On to `CCCCN(CC#N)C(=O)c1ccc(-c2ccnc3[nH]ccc23)s1` [compound 317], for which the Ki at JAK3 (setting [1]), at JAK2 (setting [1]) and at ROCK I (setting [1]) was less than 500 nM in each case.

Consider `c1cc(NCC2COc3ccccc3O2)nc(-c2ccnc3[nH]ccc23)c1` (stereo not drawn) [compound 58, N-((2,3-Dihydrobenzo[b][1,4]dioxin-2-yl)methyl)-6-(1H-pyrrolo[2,3-b]pyridin-4-yl)pyridin-2-amine], for which the Ki on JAK3 (enzyme inhibition, Table 5) lay in the range of 500 to 5000 nM; at JAK2 (enzyme inhibition, Table 5) it was 500 to 5000 nM; on ROCK I (setting [2]), 500 to 5000 nM.

With `CC(C)CN(C)C(=O)c1ccc(-c2ccnc3[nH]ccc23)s1` [compound 326], the Ki at JAK3 (setting [1]), at JAK2 (setting [1]) and on ROCK I (setting [1]) was less than 500 nM throughout.

Regarding `CC(C)Oc1ccc(-c2ccnc3[nH]ccc23)cc1` [compound 116, 4-(4-Isopropoxy-phenyl)-1H-pyrrolo[2,3-b]pyridine], the Ki on JAK3 (enzyme inhibition, Table 5) is less than 500 nM; on JAK2 (enzyme inhibition, Table 5), less than 500 nM; on ROCK I (setting [2]) it was less than 500 nM.

For `CCCNC(=O)c1ccc(-c2ccnc3[nH]ccc23)cc1` [compound 267], the Ki on JAK3 (setting [1]), on JAK2 (setting [1]) and at ROCK I (setting [1]) was less than 500 nM each time.

With `N#CCCN(Cc1ccccc1)C(=O)c1cc(-c2c(Cl)cnc3[nH]ccc23)c[nH]1` [compound 343], the Ki is less than 500 nM on JAK3 (setting [1]), less than 500 nM on JAK2 (setting [1]) and 500 to 5000 nM at ROCK I (setting [1]).

With `Nc1ncccc1-c1ccnc2[nH]ccc12` [compound 195], the Ki on JAK3 (setting [1]) was more than 5000 nM; on JAK2 (setting [1]), more than 5000 nM; at ROCK I (setting [1]) it was more than 4000 nM.

As to `C[C@H](Nc1ccnc(-c2ccnc3[nH]ccc23)n1)C(=O)NC1CC1` [compound 130], the Ki is 500 to 5000 nM at JAK3 (enzyme inhibition, Table 5); 500 to 5000 nM at JAK2 (enzyme inhibition, Table 5); 500 to 5000 nM on ROCK I (setting [2]).

Consider `O=C(O)c1cc(-c2ccnc3[nH]ccc23)c[nH]1` [compound 274], for which the Ki at JAK3 (setting [1]) is less than 500 nM; at JAK2 (setting [1]), 500 to 5000 nM; on ROCK I (setting [1]) it was more than 4000 nM.

As to `c1ncc(-c2ccnc3[nH]ccc23)cn1` [compound 104, 4-Pyrimidin-5-yl-1H-pyrrolo[2,3-b]pyridine], the Ki at JAK3 (enzyme inhibition, Table 5) lay in the range of 500 to 5000 nM; at JAK2 (enzyme inhibition, Table 5), 500 to 5000 nM; on ROCK I (setting [2]) it was 500 to 5000 nM.

For the molecule `CCCCOc1ccccc1-c1ccnc2[nH]ccc12` [compound 241], the Ki on JAK3 (setting [1]) was more than 5000 nM; at JAK2 (setting [1]) it was more than 5000 nM; at ROCK I (setting [1]) it was more than 4000 nM.

In the case of `COc1cccc(OC)c1-c1ccnc2[nH]ccc12` [compound 222], the Ki on JAK3 (setting [1]) was more than 5000 nM; at JAK2 (setting [1]), more than 5000 nM; on ROCK I (setting [1]), more than 4000 nM.

As to `CC1CC=C(c2c(Cl)cnc3[nH]ccc23)C1C` (stereo not drawn) [compound 90], the Ki at JAK3 (enzyme inhibition, Table 5) is less than 500 nM; on JAK2 (enzyme inhibition, Table 5) it was less than 500 nM; on ROCK I (setting [2]), 500 to 5000 nM.

With `CN(C)CCN(C)c1cccc(-c2c(Cl)cnc3[nH]ccc23)n1` [compound 83], the Ki at JAK3 (enzyme inhibition, Table 5) was less than 500 nM; at JAK2 (enzyme inhibition, Table 5), less than 500 nM; on ROCK I (setting [2]), 500 to 5000 nM.
